In patent US20250084041A1, “ANTIMICROBIAL COMPOUNDS AND METHODS” (Curza Global, LLC, priority 2021, published 2025):
Structures can show the parent of a compound that is named as a salt. Where two headings read alike, the source gives them in different places.

Columns and labels:
[1] = system: S. aureus (Sa); experiment: Broth microdilution MIC, S. aureus; format: cell-based; settings: Staphylococcus aureus, read-out: Sa + bicarb 25 (MIC)
Experimental: (§1) A certified BSL-2 laboratory was used for testing. Compounds were evaluated using the broth microdilution minimum inhibitory concentration (MIC) and minimum bactericidal concentration (MBC) assays defined by Clinical and Laboratory Standards Institute (CLSI) in the M26-A guideline against S. aureus (Sa), E. coli (Ec), K. pneumoniae (Kp), A. baumannii (Ab), E. faecalis (Ef) and P. aeruginosa (Pa).
(§2) MICs were determined using the Clinical Laboratory and Standards Institute (CLSI) Broth Microdilution Method with slight modification. Clinical and Laboratory Standards Institute (2012). “Methods for dilution antimicrobial susceptibility tests for bacteria that grow aerobically; approved standard, 9th ed. M07-A9. Clinical and Laboratory Standards Institute, Wayne, PA.” Serial two-fold dilutions of compounds are prepared in sterile clear round-bottom 96-well plates.
(§3) To prepare microdilution trays, two-fold dilutions of antimicrobial agent are prepared in growth medium: Cation-Adjusted Mueller-Hinton Broth (CAMHB), or CAMHB supplemented with sodium bicarbonate (25 mM final concentration prepared from a 1.0 M stock solution) or CAMHB supplemented with heat inactivated human serum (Fisher Cat. #BP2657100) 0-50% by adding 200 μL of the highest concentration to be tested (64 μg/mL, for example) in row A, mixing and transferring 100 μL from row A to 100 μL growth medium in row B, then repeating the mixing and transferring through row H of the 96-well plate, discarding the excess 100 μL remaining. This slight modification to the CLSI protocol enables evaluation of MICs for 3 compounds per plate in triplicate, albeit with only 8 compound dilutions (CLSI protocol enables 2 compounds in triplicate with 10 dilutions). Bacterial suspensions are added to a final concentration of 5×10^4 CFU/well by adding 5 μL of a 1:10 dilution of a 0.5 McFarland suspension (1×10^8 CFU/mL) for each bacterium evaluated. Bacterial suspensions were prepared using the growth method described by CLSI. Well-isolated colonies (3-5 from an agar plate) were selected using a sterile loop and used to inoculate a tube containing 4 mL of CAMHB. The cultures are incubated at 35±2° C. until it achieves or exceeds the turbidity of the 0.5 McFarland standard, determined by measuring A600nm (usually two to six hours). When growth exceeds a 0.5 McFarland standard, the turbidity is adjusted with broth to be equivalent to a 0.5 McFarland standard.

[2] = system: E. coli (Ec); experiment: Broth microdilution MIC, E. coli; format: cell-based; settings: Escherichia coli, read-out: E. coli + bicarb 25 (MIC)
Experimental: as §1, §2, §3

[3] = system: P. aeruginosa (Pa); experiment: Broth microdilution MIC, P. aeruginosa; format: cell-based; settings: Pseudomonas aeruginosa, read-out: Pa + bicarb 25 (MIC)
Experimental: as §1, §2, §3

[4] = system: A. baumannii (Ab); experiment: Broth microdilution MIC, A. baumannii; format: cell-based; settings: Acinetobacter baumannii, read-out: Ab + bicarb 25 (MIC)
Experimental: as §1, §2, §3

[5] = system: E. faecalis (Ef); experiment: Broth microdilution MIC, E. faecalis; format: cell-based; settings: Enterococcus faecalis, read-out: Ef + bicarb 25 (MIC)
Experimental: as §1, §2, §3

[6] = system: E. coli S30 extract; experiment: E. coli S30 extract: inhibition of bacterial protein synthesis (luciferase); format: biochemical; settings: 37° C. 1 hour
Experimental: E. coli S30 extract: Inhibition of bacterial protein synthesis was determined using the E. coli S30 Extract System for Circular DNA (Promega catalog #L-2010) and Luciferase Assay Reagent (Promega catalog #E1500) with slight modifications to a published protocol. Fyfe, C., Sutcliffe, J. A. and Grossman, T. H. (2012) “Development and characterization of a Pseudomonas aeruginosa in vitro coupled transcription-translation assay system for evaluation of translation inhibitors” J. Microbiol. Methods 90(3), 256-261.
Compounds were serial diluted in 0.5 mL microcentrifuge tubes by mixing and transferring 50 μL from the highest concentration to 50 μL of water, mixing and transferring 50 μL of this 2-fold dilution to 50 μL of water. This mixing and transferring was repeated so that there are a total of 8 tubes with serial dilutions of compound at 10× the desired screening concentration that are ultimately diluted to 1× by the addition of S30 luciferase synthesis mixture. Serial dilutions of compounds were added (2 μL) to wells in a black round bottom 96-well plate. Water (2 μL) was used as a “no inhibitor” control in 4 wells/plate. No DNA control reaction mixture (20 μL; see below) was used as a control in 4 wells/plate for background luminescence. S30 luciferase synthesis mixture (18 μL; see below) was added to wells with compounds or water mixture and incubated at 37° C. for 1 hour. Reactions were stopped by transferring to 4° C. refrigerator for 5 minutes then 25 μL of luciferase activity mix was added. Luminescence was measured using a BioTek Synergy HTX plate reader. % Inhibition was determined relative to no inhibitor controls.
• 445 μL S30 extract, circular • 712 μL S30 Premix without amino acids • 4.45 μL pBESTluc™ DNA (1 μg/μL) • 78 μL complete amino acid mixture • 267 μL water
• 20 μL S30 extract, circular • 32 μL S30 Premix without amino acids • 7 μL complete amino acid mixture • 21 μL water

[7] = target: Rabbit Reticulocyte Lysate; experiment: Rabbit Reticulocyte Lysate: inhibition of eukaryotic protein synthesis (luciferase); format: biochemical; settings: 30° C. 90 minutes, read-out: Retic. IC50
Experimental: Inhibition of eukaryotic protein synthesis was determined using the Rabbit Reticulocyte Lysate System, Nuclease-Treated from Promega (catalog #L-4960) with slight modifications to the manufacturer's protocol. Compounds were serial diluted in 0.5 mL microcentrifuge tubes by mixing and transferring 50 μL from the highest concentration to 50 μL of water, mixing and transferring 50 μL of this 2-fold dilution to 50 μL of water. This mixing and transferring was repeated so that there are a total of 8 tubes with serial dilutions of compound at 10× the desired screening concentration that are ultimately diluted to 1× by the addition of rabbit reticulocyte luciferase synthesis mixture. Serial dilutions of compounds were added ([…]) to wells in a black round bottom 96-well plate. Water (2.5 μL) was used as a “no inhibitor” control in 4 wells/plate. No RNA control reaction mixture ([…]; see below) was used as a control in 4 wells/plate for background luminescence. Rabbit reticulocyte luciferase synthesis mixture (22.5 μL; see below) was added to wells with compounds or water mixture and incubated at 30° C. for 90 minutes. Luciferase assay reagent (25 μL) was added with luminescence measured using a BioTek Synergy HTX plate reader. % Inhibition was determined relative to no inhibitor controls.
• 1,000 μL rabbit reticulocyte lysate • 5.7 μL Luciferase Control RNA (1 μg/μL) • 26 μL complete amino acid mixture • 395 μL water
• 70 μL rabbit reticulocyte lysate • 2 μL complete amino acid mixture • 28 μL water

[8] = S. aureus, CAMHB supplemented with sodium bicarbonate 25 mM
[9] = E. coli, CAMHB supplemented with sodium bicarbonate 25 mM
[10] = P. aeruginosa, CAMHB supplemented with sodium bicarbonate 25 mM
[11] = A. baumannii, CAMHB supplemented with sodium bicarbonate 25 mM
[12] = E. faecalis, CAMHB supplemented with sodium bicarbonate 25 mM

Compound	MIC [1]	MIC [2]	MIC [3]	MIC [4]	MIC [5]	IC50 [6]	IC50 [7]	MIC [1, 8]	MIC [2, 9]	MIC [3, 10]	MIC [4, 11]	MIC [5, 12]
CC(C)(N)C(=O)N1CCN(C(=O)Nc2ccn(C3CCC(CN[C@H]4CC[C@H](N)CC4)CC3)c(=O)n2)CC1 (mixture of isomers) [Compound 11, 4-(2-Amino-2-methylpropanoyl)-N-(1-(4-(((trans-4-aminocyclohexyl)amino)methyl)cyclohexyl)-2-oxo-1,2-dihydropyrimidin-4-yl)piperazine-1-carboxamide hydrochloride salt]	< 8 µg/mL	< 8 µg/mL	> 32 µg/mL	> 32 µg/mL	< 8 µg/mL	< 0.5 µM	≥ 1 µM	–	–	–	–	–
CN(CC1CC=C(n2ccc(NC(=O)N3CCN(C(=O)C(C)(C)N)CC3)nc2=O)CC1)[C@H]1CC[C@H](N)CC1 (single isomer, unassigned) [Compound 32, trans-4-(2-Amino-2-methylpropanoyl)-N-(1-(4-(((4-aminocyclohexyl)(methyl)amino)methyl)cyclohex-1-en-1-yl)-2-oxo-1,2-dihydropyrimidin-4-yl)piperazine-1-carboxamide hydrochloride salt]	< 8 µg/mL	< 8 µg/mL	> 32 µg/mL	> 32 µg/mL	8 to 32 µg/mL	< 0.5 µM	≥ 1 µM	–	–	–	–	–
CC(C)(N)C(=O)N1CCN(C(=O)Nc2ccn(C3=CCC(CN4C[C@@H]5[C@@H](N)[C@@H]5C4)CC3)c(=O)n2)CC1 (single isomer, unassigned) [Compound 33, 4-(2-Amino-2-methylpropanoyl)-N-(1-(4-(((exo)-6-amino-3-azabicyclo[3.1.0]hexan-3-yl)methyl)cyclohex-1-en-1-yl)-2-oxo-1,2-dihydropyrimidin-4-yl)piperazine-1-carboxamide hydrochloride salt]	–	–	–	–	–	< 0.5 µM	≥ 1 µM	< 8 µg/mL	< 8 µg/mL	> 32 µg/mL	8 to 32 µg/mL	< 8 µg/mL
CC(C)(N)C(=O)N1CCN(C(=O)Nc2ccn(C3=CCC(CN4CCC5(CC4)CC(N)C5)CC3)c(=O)n2)CC1 (single isomer, unassigned) [Compound 36]	–	–	–	–	–	< 0.5 µM	≥ 1 µM	< 8 µg/mL	< 8 µg/mL	8 to 32 µg/mL	8 to 32 µg/mL	< 8 µg/mL
CC1(N)CCN(CC2CCC(n3ccc(NC(=O)N4CCN(C(=O)C(C)(C)N)CC4)nc3=O)CC2)CC1 (stereo not drawn) [Compound 15, 4-(2-amino-2-methylpropanoyl)-N-(1-(4-((4-amino-4-methylpiperidin-1-yl)methyl)cyclohexyl)-2-oxo-1,2-dihydropyrimidin-4-yl)piperazine-1-carboxamide hydrochloride salt]	–	–	–	> 32 µg/mL	> 32 µg/mL	< 0.5 µM	≥ 1 µM	–	–	–	–	–
CC(C)(N)C(=O)N1CCN(C(=O)Nc2ccn(C3=CCC(CN4C[C@@H]5[C@H](N)[C@@H]5C4)CC3)c(=O)n2)CC1 (stereo partly drawn) [Compound 22, endo-4-(2-Amino-2-methylpropanoyl)-N-(1-(4-((6-amino-3-azabicyclo[3.1.0]hexan-3-yl)methyl)cyclohex-1-en-1-yl)-2-oxo-1,2-dihydropyrimidin-4-yl)piperazine-1-carboxamide hydrochloride salt]	< 8 µg/mL	–	> 32 µg/mL	< 8 µg/mL	8 to 32 µg/mL	< 0.5 µM	≥ 1 µM	–	–	–	–	–
CC1(N)CCN(CC2CC=C(n3ccc(NC(=O)N4CCN(C(=O)C(C)(C)N)CC4)nc3=O)CC2)CC1 (stereo not drawn) [Compound 27, 4-(2-Amino-2-methylpropanoyl)-N-(1-(4-((4-amino-4-methylpiperidin-1-yl)methyl)cyclohex-1-en-1-yl)-2-oxo-1,2-dihydropyrimidin-4-yl)piperazine-1-carboxamide hydrochloride salt]	< 8 µg/mL	–	> 32 µg/mL	8 to 32 µg/mL	< 8 µg/mL	< 0.5 µM	≥ 1 µM	–	–	–	–	–
CC(C)(N)C(=O)N1CCN(C(=O)Nc2ccn(C3=CCC(CN4CCC(N)CC4)CC3)c(=O)n2)CC1 (stereo not drawn) [Compound 28, 4-(2-Amino-2-methylpropanoyl)-N-(1-(4-((4-aminopiperidin-1-yl)methyl)cyclohex-1-en-1-yl)-2-oxo-1,2-dihydropyrimidin-4-yl)piperazine-1-carboxamide hydrochloride salt]	–	–	–	> 32 µg/mL	> 32 µg/mL	0.5 to 1 µM	≥ 1 µM	–	–	–	–	–
CCN(CC1CC=C(n2ccc(NC(=O)N3CCN(C(=O)C(C)(C)N)CC3)nc2=O)CC1)[C@H]1CC[C@H](N)CC1 (stereo partly drawn) [Compound 31, trans-4-(2-Amino-2-methylpropanoyl)-N-(1-(4-(((4-aminocyclohexyl)(ethyl)amino)methyl)cyclohex-1-en-1-yl)-2-oxo-1,2-dihydropyrimidin-4-yl)piperazine-1-carboxamide hydrochloride salt]	< 8 µg/mL	< 8 µg/mL	> 32 µg/mL	–	< 8 µg/mL	< 0.5 µM	≥ 1 µM	–	–	–	–	–
CC(C)(N)C(=O)N1CCN(C(=O)Nc2ccn([C@H]3CC[C@H](CN(CCF)[C@H]4CC[C@H](N)CC4)CC3)c(=O)n2)CC1 [Compound 49, trans-trans-4-(2-amino-2-methylpropanoyl)-N-(1-(4-(((4-aminocyclohexyl)(2-fluoroethyl)amino)methyl)cyclohexyl)-2-oxo-1,2-dihydropyrimidin-4-yl)piperazine-1-carboxamide hydrochloride salt]	< 8 µg/mL	< 8 µg/mL	–	> 32 µg/mL	8 to 32 µg/mL	< 0.5 µM	≥ 1 µM	–	–	–	–	–
